We go through nine compounds from patent EP4168396B1, “COMPOUNDS FOR THE TREATMENT OF NEURODEGENERATIVE DISEASES” (Universite De Franche Comte, priority 2020, dated 2021).

SMILES strings stand for the structures. Like-named read-outs stand apart in the source and are kept apart here.

In assay [1] the target is T1, human recombinant acetylcholinesterase (hAChE) (Homo sapiens, UniProt P22303).
T1 construct: purchased Sigma-Aldrich
Nature of the assay: Cholinesterase inhibition assay (Ellman), hAChE. The assay is classed as biochemical. How it is done: Inhibitory activities of the test compounds against the human cholinesterases were measured using the spectrophotometric method described by Ellman et al.^4, as modified for 96-well microplates. 5,5'-Dithiobis-(2-nitrobenzoic acid) (DTNB), acetylthiocholine iodide (ATC), butyrylthiocholine iodide (BTC), and human recombinant acetylcholinesterase (hAChE) were purchased from Sigma-Aldrich. Human butyrylcholinesterase (hBuChE) isolated from human plasma was from Vivonics (Bedford, MA, USA). […] In the first step of Ellman's method 25 µL of the test compound (or mixture DMSO/water in appropriate ratio; i.e. blank samples) was incubated in 0.1 M phosphate buffer (200 µL, pH= 8.0) with DTNB (20 µL; 0.0025M) and the enzyme (20 µL; hAChE or hBuChE) in temperature 36 °C. […] All compounds were tested at screening concentration of 10 µM. Percent of inhibition was calculated from 100-(S/B)×100, where S and B were the respective enzyme activities with and without the test sample, respectively. […] All reactions were performed in triplicate. The IC50 values were calculated using nonlinear regression (GraphPad Prism 5 [GraphPad Software, San Diego California USA 5.00]) by plotting the residual enzyme activities against the applied inhibitor concentration. Tacrine was used as a reference compound.
For orientation: In Ellman's method for cholinesterases, released thiocholine reacts with DTNB.

Assay [2] concerns the target T2, human H3 receptor (Homo sapiens, UniProt Q9Y5N1).
T2 construct: expressed in transfected cells; host or cells: CHO-K1
Briefly: H3 Receptor Binding Assay (radioligand binding). As to conditions: membranes from CHO-K1 cells, [3H]-N-α-methylhistamine 1.0 nM; read-out: H3R Ki [nM] ± SEM. How it is done: 10 mM stock solutions of compounds to be tested were prepared in DMSO.
Radioligand binding was performed using membranes from CHO-K1 cells stably transfected with the human H3 receptor. All assays were carried out in duplicates. 50 µl working solution of the tested compounds, 50 µl [3H]-N-α-methylhistamine (spec. act. 82.9 Ci/mmol, final concentration 1.0 nM) and 150 µl diluted membranes (15 µg protein per well) prepared in assay buffer (50 mM Tris, pH 7.4, 5 mM MgCl2) were transferred to polypropylene 96-well microplate using 96-wells pipetting station Rainin Liquidator (MettlerToledo). […] Microplate was covered with a sealing tape, mixed and incubated for 60 minutes at 27°C. The reaction was terminated by rapid filtration through GF/B filter mate presoaked with 0.5% polyethyleneimine for 30 minutes. Five rapid washes with 300 µl 50 mM Tris buffer (4°C, pH 7.4) were performed using 96-well FilterMate harvester (PerkinElmer, USA). The filter mates were dried at 37°C in forced air fan incubator and then solid scintillator MeltiLex was melted on filter mates at 90°C for 4 minutes. Radioactivity was counted in MicroBeta2 scintillation counter (PerkinElmer). Data were fitted to a one-site curve-fitting equation with Prism 5 (GraphPad Software) and Ki values were estimated from the Cheng-Prusoff equation.

Assay [3] has as its target T3, Human butyrylcholinesterase (hBuChE) (Homo sapiens, UniProt P06276).
T3 construct: Human butyrylcholinesterase (hBuChE) isolated from human plasma was from Vivonics; purchased Vivonics (Bedford, MA, USA); host or cells: human plasma
Nature of the assay: Cholinesterase inhibition assay (Ellman), hBuChE. The assay is classed as biochemical. How it is done:
Inhibitory activities of the test compounds against the human cholinesterases were measured using the spectrophotometric method described by Ellman et al.^4, as modified for 96-well microplates. 5,5'-Dithiobis-(2-nitrobenzoic acid) (DTNB), acetylthiocholine iodide (ATC), butyrylthiocholine iodide (BTC), and human recombinant acetylcholinesterase (hAChE) were purchased from Sigma-Aldrich. Human butyrylcholinesterase (hBuChE) isolated from human plasma was from Vivonics (Bedford, MA, USA). […] The stock solutions of the test compounds were prepared by dissolving in DMSO to obtain a concentration of 0.0034M. They were further diluted in water to give appropriate concentration in a well. In the first step of Ellman's method 25 µL of the test compound (or mixture DMSO/water in appropriate ratio; i.e. blank samples) was incubated in 0.1 M phosphate buffer (200 µL, pH= 8.0) with DTNB (20 µL; 0.0025M) and the enzyme (20 µL; hAChE or hBuChE) in temperature 36 °C. […] All compounds were tested at screening concentration of 10 µM. Percent of inhibition was calculated from 100-(S/B)×100, where S and B were the respective enzyme activities with and without the test sample, respectively. […] All reactions were performed in triplicate. The IC50 values were calculated using nonlinear regression (GraphPad Prism 5 [GraphPad Software, San Diego California USA 5.00]) by plotting the residual enzyme activities against the applied inhibitor concentration. Tacrine was used as a reference compound.

Assay [4] has as its target T4, Human recombinant GSK-3β (Homo sapiens, UniProt P49841).
T4 construct: purchased Millipore (Millipore Iberica S.A.U.)
Briefly: GSK-3β inhibition in vitro assay (Kinase-Glo luminescence). The format is biochemical. How it is done:
Human recombinant GSK-3β, prephosphorylated polypeptide substrate and white 96-well plates were purchased from Millipore (Millipore Iberica S.A.U.). Kinase-Glo Luminescent Kinase Assay was obtained from Promega (Promega Biotech Iberica, SL). Adenosinetriphosphate (ATP) and all other reagents were from Sigma-Aldrich. Assay buffer contained 50 mM 4-(2-hydroxyethyl)-1- piperazineethanesulfonic acid (HEPES) (pH 7.5), 1 mM ethylenediaminetetraacetic acid (EDTA), 1 mM ethylene glycol tetraacetic acid (EGTA), and 15 mM magnesium acetate. The in solution experiments for GSK-3β inhibition analysis were performed by following the method developed by Baki et al.^18. In a typical assay, 10 µL of test compound (dissolved in DMSO at 1 mM concentration and diluted in advance in assay buffer to the desired concentration) and 10 µL (20 ng) of enzyme were added to each well in presence of 20 µL of assay buffer containing GSM substrate and ATP in order to reach a 25 µM and 1 µM final concentration respectively. […] After a 30 min incubation time at 30 °C, the enzymatic reaction was stopped by adding 40 µL of Kinase-Glo reagent. Glow-type luminescence was recorded after 10 min using a VictorX 3 PerkinElmer plate reader. […]. The linear regression parameters were determined and the IC50 extrapolated (GraphPad Prism 4.0, GraphPad Software Inc.).

In assay [5] the test system is voltage-gated Ca^2+ channels (VGCC). Briefly: Calcium channel antagonist assay (cytosolic Ca2+, Fluo-4). The format is cell-based. The note with it: SH-SY5Y cells, K+ 70 mM. How it is done:
The cytosolic Ca2+ has been measured in SH-SY5Y cells. SH-SY5Y cells were maintained similarly to what was previously described56. Free cytosolic Ca2+ was measured using the fluorescent Ca2+ indicator Fluo-4/AM (Fluo-4 acetomethoxyester). SH-SY5Y cells were seeded onto 96-well black plates at a density of 10^5 cells per well, achieving confluence after 48 h. Cells were washed with Krebs-Hepes solution (KH, in mM: 144 NaCl, 5.9 KCl, 1.2 MgCl2, 2 CaCl2, 11 D-glucose, 10 HEPES, pH 7.4). Cells were loaded with 10 µM Fluo-4/AM and 0.2% pluronic acid in KH and incubated for 45 min at 37 °C in the dark. Then, cells were washed twice with KH to remove the excess of probe. Tested compounds were incubated 10 min before K+ 70 mM was applied to evoke the increment of cytosolic Ca2+. To normalize Fluo-4 signals, Triton X-100 (5%) and 1 M MnCl2 were applied to register both maximal and minimal fluorescence, respectively. The experiments were analyzed at excitation and emission wavelengths of 485 and 520 nm, respectively, and fluorescence was measured in a fluorescence microplate reader (FLUOstar Optima, BMG, Germany). Data were calculated as a percentage of Fmax - Fmin.
The blocking effect of the depolarization-induced Ca^2+ uptake was investigated in SH-SY5Y neuroblastoma cells stimulated with an extracellular concentration of K^+ 70 mM, which induces the cell Ca^2+ levels elevation by opening voltage-gated Ca^2+ channels (VGCC), monitored with the Ca^2+-sensitive fluorescent dye Fluo-4. Nimodipine was used as positive standard.

T4 sequence (P49841 whole entry): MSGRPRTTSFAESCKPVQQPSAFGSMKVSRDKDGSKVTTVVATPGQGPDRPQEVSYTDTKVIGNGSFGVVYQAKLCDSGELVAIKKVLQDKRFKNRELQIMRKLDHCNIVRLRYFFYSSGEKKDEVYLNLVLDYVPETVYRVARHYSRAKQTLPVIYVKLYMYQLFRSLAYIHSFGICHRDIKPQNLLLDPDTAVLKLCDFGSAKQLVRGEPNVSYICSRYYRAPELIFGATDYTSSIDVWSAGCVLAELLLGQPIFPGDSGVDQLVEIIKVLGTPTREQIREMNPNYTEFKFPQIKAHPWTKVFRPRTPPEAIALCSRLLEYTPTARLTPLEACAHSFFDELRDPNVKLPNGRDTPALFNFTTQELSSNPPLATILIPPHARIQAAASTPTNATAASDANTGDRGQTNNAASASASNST
T1 sequence (P22303 32-614): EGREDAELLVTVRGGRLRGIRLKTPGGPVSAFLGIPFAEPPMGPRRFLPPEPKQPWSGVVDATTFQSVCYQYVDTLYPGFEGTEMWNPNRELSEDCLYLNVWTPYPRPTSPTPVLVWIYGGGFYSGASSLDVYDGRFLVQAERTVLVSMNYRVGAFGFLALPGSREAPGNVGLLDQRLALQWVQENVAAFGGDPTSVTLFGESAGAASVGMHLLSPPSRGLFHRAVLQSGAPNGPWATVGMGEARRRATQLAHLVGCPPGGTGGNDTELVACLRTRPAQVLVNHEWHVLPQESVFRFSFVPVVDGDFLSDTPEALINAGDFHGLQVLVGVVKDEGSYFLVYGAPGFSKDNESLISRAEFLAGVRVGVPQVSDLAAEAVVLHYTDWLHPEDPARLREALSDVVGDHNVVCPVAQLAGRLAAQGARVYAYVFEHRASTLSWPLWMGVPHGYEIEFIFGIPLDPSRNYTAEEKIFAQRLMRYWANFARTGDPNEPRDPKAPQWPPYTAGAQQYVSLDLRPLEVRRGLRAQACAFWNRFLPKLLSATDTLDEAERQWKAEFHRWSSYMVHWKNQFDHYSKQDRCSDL
T2 sequence (Q9Y5N1 whole entry): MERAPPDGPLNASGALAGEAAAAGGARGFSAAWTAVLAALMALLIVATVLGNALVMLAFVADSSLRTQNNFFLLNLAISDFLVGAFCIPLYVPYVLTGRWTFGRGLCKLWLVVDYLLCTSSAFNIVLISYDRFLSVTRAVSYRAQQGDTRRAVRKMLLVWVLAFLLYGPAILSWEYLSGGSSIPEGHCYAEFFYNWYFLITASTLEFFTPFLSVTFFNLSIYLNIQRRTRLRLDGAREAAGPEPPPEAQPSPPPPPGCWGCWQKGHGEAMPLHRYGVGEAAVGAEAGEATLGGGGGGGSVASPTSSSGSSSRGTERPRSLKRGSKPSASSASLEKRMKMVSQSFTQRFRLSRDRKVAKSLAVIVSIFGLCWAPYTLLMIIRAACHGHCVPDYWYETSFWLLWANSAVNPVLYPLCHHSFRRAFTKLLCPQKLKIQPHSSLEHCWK
T3 sequence (P06276 29-602): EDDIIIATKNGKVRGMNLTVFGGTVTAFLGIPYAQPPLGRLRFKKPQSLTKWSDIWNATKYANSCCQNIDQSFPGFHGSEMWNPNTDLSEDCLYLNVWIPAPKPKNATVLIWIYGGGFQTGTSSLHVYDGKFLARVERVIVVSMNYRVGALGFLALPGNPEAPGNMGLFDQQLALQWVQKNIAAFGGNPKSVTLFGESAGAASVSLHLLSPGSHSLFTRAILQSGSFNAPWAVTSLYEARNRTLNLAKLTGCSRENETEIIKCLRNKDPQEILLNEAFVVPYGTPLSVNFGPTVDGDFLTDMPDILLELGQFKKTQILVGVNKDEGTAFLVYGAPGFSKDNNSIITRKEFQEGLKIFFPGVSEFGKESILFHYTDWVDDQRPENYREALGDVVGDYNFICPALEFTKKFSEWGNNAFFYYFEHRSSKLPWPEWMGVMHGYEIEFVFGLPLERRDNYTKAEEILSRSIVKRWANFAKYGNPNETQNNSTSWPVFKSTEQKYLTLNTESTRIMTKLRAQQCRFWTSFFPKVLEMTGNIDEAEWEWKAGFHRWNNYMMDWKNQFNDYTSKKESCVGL

As to `CCOC(=O)C1=C(C)N(CCC2CCN(Cc3ccccc3)CC2)C(=O)NC1c1ccc(OCCCCN2CCCC2)cc1` (stereo not drawn) [BIGI-BIH-D1, Ethyl 1-(2-(1-benzylpiperidin-4-yl)ethyl)-6-methyl-2-oxo-4-(4-(4-(pyrrolidin-1-yl)butoxy)phenyl)-1,2,3,4-tetrahydropyrimidine-5-carboxylate], the IC50 in assay [1] (read-out: cholinesterases inhibition) was 63 nM; in assay [1] (read-out: hAChE IC50), 63 ± 1 nM; in assay [3] it was 1720 ± 119 nM; in assay [4] (read-out: Gsk3β IC50) it was 59800 nM. In assay [2], the inhibition constant Ki (commonly the dissociation constant of the complex between target and ligand, obtained from inhibition or displacement) amounted to 2.8 ± 0.2 nM. For the same compound, in assay [5], the “Calcium Channel % inhibition at 10µM” value amounted to 5%.

On to `CCOC(=O)C1=C(C)N(CCC2CCN(Cc3ccccc3)CC2)C(=O)NC1c1ccc(OCCCCN2CCOCC2)cc1` (stereo not drawn) [BIGI-BIH-D3, Ethyl 1-(2-(1-benzylpiperidin-4-yl)ethyl)-6-methyl-4-(4-(4-morpholinobutoxy)phenyl)-2-oxo-1,2,3,4-tetrahydropyrimidine-5-carboxylate], for which the results for the IC50 in assay [1] (read-out: hAChE IC50) and in assay [4] (read-out: Gsk3β IC50) were 123 ± 2 nM and 126000 nM, respectively. In addition, in assay [2], the inhibition constant Ki is 12 ± 0.5 nM. Also, in assay [5], the “Calcium Channel % inhibition at 10µM” value came to 23%.

Turning to `CCOC(=O)C1=C(C)N(CCC2CCN(Cc3ccccc3)CC2)C(=O)NC1c1ccc(OCCCCCCN2CCCC2)cc1` (stereo not drawn) [BIGI-BIH-D7, Ethyl 1-(2-(1-benzylpiperidin-4-yl)ethyl)-6-methyl-2-oxo-4-(4-((6-(pyrrolidin-1-yl)hexyl)oxy)phenyl)-1,2,3,4-tetrahydropyrimidine-5-carboxylate], the values for the IC50 in assay [1] (read-out: hAChE IC50), in assay [3] and in assay [4] (read-out: Gsk3β IC50) were 89 ± 2 nM, 768 ± 13 nM and 30600 nM, respectively. Besides, the inhibition constant Ki in assay [2] was 0.2 ± 0.04 nM. Further, the “Calcium Channel % inhibition at 10µM” value in assay [5] stood at 47%.

As to `CCOC(=O)C1=C(C)N(CCC2CCN(Cc3ccccc3)CC2)C(=O)NC1c1ccc(OCCCCCCN2CCOCC2)cc1` (stereo not drawn) [BIGI-BIH-D9, Ethyl 1-(2-(1-benzylpiperidin-4-yl)ethyl)-6-methyl-4-(4-((6-morpholinohexyl)oxy)phenyl)-2-oxo-1,2,3,4-tetrahydropyrimidine-5-carboxylate], the IC50 in assay [1] (read-out: hAChE IC50) turned out to be 115 ± 2 nM; in assay [4], 38600 nM. In addition, the inhibitory constant (Ki) in assay [2] was found to be 3 ± 0.4 nM. In addition, the “Calcium Channel % inhibition at 10µM” value in assay [5] is reported as 61%.

For the compound `COCCOC(=O)C1=C(C)NC(C)=C(C(=O)OC(C)C)C1c1cccc([N+](=O)[O-])c1` (stereo not drawn) [Nimodipine, reference compound], in assay [5], the “Calcium Channel % inhibition at 10µM” value is reported as 38%.

Turning to `CCOC(=O)C1=C(C)N(CCC2CCN(Cc3ccccc3)CC2)C(=O)NC1c1ccc(OCCCCCN2CCCCC2)cc1` (stereo not drawn) [BIGI-BIH-D5, Ethyl 1-(2-(1-benzylpiperidin-4-yl)ethyl)-6-methyl-2-oxo-4-(4-((5-(piperidin-1-yl)pentyl)oxy)phenyl)-1,2,3,4-tetrahydropyrimidine-5-carboxylate], the IC50 in assay [1] (read-out: hAChE IC50) was found to be 67 ± 1 nM; in assay [3], 1280 ± 72 nM; in assay [4] (read-out: Gsk3β IC50), 26300 nM. In addition, in assay [2], the inhibitory constant (Ki) came out at 0.3 ± 0.07 nM. The “Calcium Channel % inhibition at 10µM” value in assay [5] worked out at 34%.

As to `CCOC(=O)C1=C(C)N(CCC2CCN(Cc3ccccc3)CC2)C(=O)NC1c1ccc(OCCCCCN2CCCC2)cc1` (stereo not drawn) [BIGI-BIH-D4, Ethyl 1-(2-(1-benzylpiperidin-4-yl)ethyl)-6-methyl-2-oxo-4-(4-((5-(pyrrolidin-1-yl)pentyl)oxy)phenyl)-1,2,3,4-tetrahydropyrimidine-5-carboxylate], the figures for the IC50 in assay [1] (read-out: hAChE IC50), in assay [3] and in assay [4] were 88 ± 2 nM, 1390 ± 66 nM and 60500 nM, respectively. In addition, the Ki in assay [2] amounted to 0.5 ± 0.05 nM. Also, in assay [5], the “Calcium Channel % inhibition at 10µM” value is reported as 22%.

Consider `CCOC(=O)C1=C(C)N(CCC2CCN(Cc3ccccc3)CC2)C(=O)NC1c1ccc(OCCCCCN2CCOCC2)cc1` (stereo not drawn) [BIGI-BIH-D6, Ethyl 1-(2-(1-benzylpiperidin-4-yl)ethyl)-6-methyl-4-(4-((5-morpholinopentyl)oxy)phenyl)-2-oxo-1,2,3,4-tetrahydropyrimidine-5-carboxylate], for which the IC50 in assay [1] (read-out: hAChE IC50) turned out to be 115 ± 2 nM; in assay [4] (read-out: Gsk3β IC50) it was 56600 nM. In assay [2], the inhibition constant Ki was determined as 0.6 ± 0.05 nM. The “Calcium Channel % inhibition at 10µM” value in assay [5] is on record as 39%.

In the case of `CCOC(=O)C1=C(C)N(CCC2CCN(Cc3ccccc3)CC2)C(=O)NC1c1ccc(OCCCCCCN2CCCCC2)cc1` (stereo not drawn) [BIGI-BIH-D8, Ethyl 1-(2-(1-benzylpiperidin-4-yl)ethyl)-6-methyl-2-oxo-4-(4-((6-(piperidin-1-yl)hexyl)oxy)phenyl)-1,2,3,4-tetrahydropyrimidine-5-carboxylate], the IC50 was determined as 86 ± 2 nM in assay [1] (read-out: hAChE IC50), 1250 ± 46 nM in assay [3] and 68200 nM in assay [4] (read-out: Gsk3β IC50). Further, the Ki in assay [2] came to 0.2 ± 0.02 nM. The “Calcium Channel % inhibition at 10µM” value in assay [5] amounted to 60%.
